The values below come from patent publication US20110028495A1, “THE USE OF 6-HALOGENO-[1,2,4]-TRIAZOLO-[1,5-a]-PYRIMIDINE COMPOUNDS FOR COMBATING PESTS IN AND ON ANIMALS” (priority 2007, published 2011).

Assay [1] relates to Cat flea (Ctenocephalides felis). As to the kind of experiment: Ingestion assay with Ctenocephalides felis (treated cow blood). The conditions noted are these: po, adult C. felis fed treated cow blood, 72 hours post treatment, read-out: EC50 (mortality of C. felis). The protocol: B.5 Activity Against Cat Flea (Ctenocephalides felis)
B.5.1 Ingestion Assay with Ctenocephalides felis
The compounds were formulated in 100% DMSO and were diluted with fresh cow blood to final testing concentrations of 50 ppm, 12.5 ppm, 3.125 ppm, 0.78 ppm and 0.195 ppm. Ten adult C. felis were loaded into testing cages and exposed to blood containing the test compound for up to 72 hours. Blood was changed at 24 hour intervals until the test was completed and kept at 37° C. for duration of the test. The efficacy of a compound was determined based on mortality of C. felis at 72 hours post treatment.

Assay [2] concerns Yellowfever mosquito (Aedes aegypti). Description: Activity against yellowfever mosquito (neonate larval motility). The conditions noted are these: neonate A. aegypti larvae, dose response assay. The protocol: B.4. Activity Against Yellowfever Mosquito (Aedes aegypti)
The compounds were formulated in 100% DMSO and were tested in microtiter plates containing 180 ul X Luria Broth media and 10 neonate A. aegypti larvae. The efficacy of a compound was determined based on the motility of the larvae as compared to average motility of control wells containing DMSO only. Compounds with >80% reduction in motility were tested in a dose response assay to determine EC50 values.

Assay [3] deals with Mediterranean fruitfly (Ceratitis capitata). Description: Activity against Mediterranean fruitfly (eggs/hatched larvae, microtiter plate). The conditions noted are these: 144 h, eggs sprayed, 6 days, compared to 0% mortality of untreated controls. The protocol: B.1 Activity Against Mediterranean Fruitfly (Ceratitis capitata)
The compounds were formulated in 1:3 DMSO:water. 50 to 80 eggs were placed into microtiterplates filled with 0.5% agar-agar and 14% diet in water. The eggs were sprayed with 5 μl of the test solution, the plates were sealed with pierced foils and kept at 27-29° C. and 75-85% humidity under fluorescent light for 6 days. Mortality was assessed on the basis of the agility of the hatched larvae. Tests were replicated 2 times.

The test system of assay [4] is Caenorhabditis elegans. As to the kind of experiment: Activity against Caenorhabditis elegans (L1 larval motility). The conditions noted are these: L1 C. elegans, dose response assay, read-out: EC50 (reduction in motility of L1 larvae). The protocol: B.2 Activity Against Caenorhabditis elegans
The compounds were formulated in 100% DMSO and were tested in microtiter plates containing 50 μl nematode growth media, 1% E. coli and 20 L1 C. elegans. The efficacy of a compound was determined based on the motility of the larvae as compared to average motility of control wells containing DMSO only. Compounds with >80% reduction in motility were tested in a dose response assay to determine EC50 values.

The test system of assay [5] is brown dog ticks. Description: Efficacy against ticks in dogs (spot-on). Conditions: 20 mg/kg, days 9, 16 and 23, compared to the placebo group. The assay is classed as in vivo, brown dog ticks on dogs. The text has this:
(§1) B.7 Study to Evaluate Efficacy of Compounds Against Fleas and Ticks in Dogs
(§2) Dogs were infested with 100 cat fleas on days −1, 8, 15, 22, 29, and 36, and 50 brown dog ticks on days −1, 7 14, 21, 28, and 35. Infested dogs receive a treatment of a compound or placebo in the form of spot-on applied at the middle of the neck between the shoulder blades. Live fleas and ticks were removed and counted on days 2, 9, 16, 23, 30, and 37.

In assay [6] the test system is cat fleas. Description: Efficacy against fleas in dogs (spot-on). The assay is classed as in vivo, cat fleas on dogs. Conditions: 20 mg/kg, days 9, 16 and 23, compared to the placebo group.
From the text: as §1, §2

Consider `CCc1nc2ncnn2c(N[C@@H](C)c2ccc(OC(F)F)cc2)c1Cl` [C.I.31], for which the LC50 in assay [1] was below 50 µg/mL. Moreover, in assay [2], the “EC50 (reduction in motility of larvae)” value is on record as below 1 ppm.

One may read the mortality as the percentage killed. The low end stands for a weak lethal effect, the high end for a strong lethal effect. `Cc1nc2ncnn2c(NC(C)c2ccc(OC(F)(F)CF)cc2)c1Cl` (racemic) [C.I.38] had a mortality at 2500 ppm in assay [3] above 75%. The LC50 in assay [1] is below 50 µg/mL.

As usually defined, the EC50 is the concentration needed to bring the measured effect to its halfway point. For `Cc1nc2ncnn2c(NC2CCC(C(C)C)CC2)c1Cl` (stereo not shown) [C.I.2], in assay [4], the concentration for a half-maximal effect (EC50) was below 10 µg/mL.

With `CCc1nc2ncnn2c(NCCc2ccc(OC(F)(F)F)cc2)c1Cl` [C.I.32], the concentration for a half-maximal effect (EC50) in assay [4] was below 10 µg/mL.

In turn, `CCc1nc2ncnn2c(N[C@@H](C)c2ccc(Cl)cc2)c1Cl` [C.I.22] had a mortality at 2500 ppm in assay [3] above 75%.

Consider `Cc1nc2ncnn2c(N[C@@H](C)c2ccc3ccccc3c2)c1Cl` [C.I.37], for which the LC50 in assay [1] was below 50 µg/mL.

Turning to `Cc1nc2ncnn2c(NC2CCC(C)CC2)c1Cl` (stereo not shown) [C.I.1], the EC50 in assay [4] was below 10 µg/mL.

Consider `CCC(C)[C@H]1CC[C@@H](Nc2c(Cl)c(C)nc3ncnn23)CC1` (stereo partly shown) [C.I.5], for which, in assay [1], the LC50 is below 50 µg/mL.

For the compound `CCc1nc2ncnn2c(NC2CCC(C(C)C)CC2)c1Cl` (stereo not shown) [C.I.17], in assay [1], the LC50 is below 50 µg/mL.

Take `CCc1nc2ncnn2c(N[C@@H](C)c2ccc(Br)cc2)c1Cl` [C.I.23]: the EC50 in assay [4] was below 10 µg/mL.

For `CCc1nc2ncnn2c(N[C@H]2CC[C@@H](C(F)(C(F)(F)F)C(F)(F)F)CC2)c1Cl` [C.I.46], in assay [4], the half-maximal effective concentration (EC50) was below 10 µg/mL.

Regarding `Cc1nc2ncnn2c(NCc2ccc(Oc3ccc(Cl)c(Cl)c3)cc2)c1Cl` [C.I.12], in assay [4], the concentration for a half-maximal effect (EC50) was below 10 µg/mL.

Consider `CCc1nc2ncnn2c(N[C@H]2CC[C@@H](C(C)(C)C)CC2)c1Cl` [C.I.20], for which the LC50 in assay [1] was below 50 µg/mL. The efficacy against ticks in assay [5] is listed as above 80%. This compound also registered an efficacy against fleas in assay [6] above 80%.

On to `Cc1nc2ncnn2c(N[C@H]2CC[C@@H](C(F)(C(F)(F)F)C(F)(F)F)CC2)c1Cl` [C.I.34], for which the EC50 in assay [4] was below 10 µg/mL. In assay [1], the LC50 was below 50 µg/mL.

For `CCc1nc2ncnn2c(NC(C)c2ccc(-c3ccccc3)cc2)c1Cl` (racemic) [C.I.59], the 50% effective concentration (EC50) in assay [4] is below 10 µg/mL.

On to `CCc1nc2ncnn2c(N[C@@H](C)c2cccc(OCc3ccccc3)c2)c1Cl` [C.I.58], for which the EC50 in assay [4] was below 10 µg/mL.

As for `Cc1nc2ncnn2c(NCc2ccc(Oc3ccc(Br)cc3)cc2)c1Cl` [C.I.11], the EC50 in assay [4] is below 10 µg/mL. Besides, the LC50 in assay [1] is below 50 µg/mL.

In assay [3], `CCc1nc2nc(C)nn2c(N[C@H]2CC[C@@H](C(C)(C)C)CC2)c1Cl` [C.I.55] displayed a mortality at 2500 ppm above 75%.

As for `Cc1nc2ncnn2c(N[C@@H](C)c2ccc(OC(F)(F)C(F)F)cc2)c1Cl` [C.I.40], the concentration giving a half-maximal response (EC50) in assay [4] is below 10 µg/mL.

On to `CCc1nc2ncnn2c(NC(C)c2ccc(OC(F)(F)CF)cc2)c1Cl` (racemic) [C.I.49], for which the mortality at 2500 ppm in assay [3] was above 75%.

As to `CCc1nc2ncnn2c(NC2CCC(C(C)CC)CC2)c1Cl` (stereo not shown) [C.I.18], in assay [1], the LC50 was below 50 µg/mL.

Take `CCc1nc2ncnn2c(N[C@H]2CC[C@@H](CCC(F)(F)F)CC2)c1Cl` [C.I.45]: the half-maximal effective concentration (EC50) in assay [4] is below 10 µg/mL.

In the case of `CCc1nc2nc([S+](C)[O-])nn2c(N[C@@H](C)c2ccc(C)cc2)c1Cl` (stereo partly shown) [C.I.56], the EC50 in assay [4] is below 10 µg/mL.

For the compound `CCC(Nc1c(Cl)c(C)nc2ncnn12)c1ccc(OC(F)(F)C(F)C(F)(F)F)cc1` (stereo not shown) [C.I.43], the concentration for a half-maximal effect (EC50) in assay [4] was below 10 µg/mL. This compound also displayed a mortality at 2500 ppm in assay [3] above 75%.

On to `Cc1nc2ncnn2c(NCc2ccc(Oc3ccc(Cl)cc3)cc2)c1Cl` [C.I.10], for which the concentration giving a half-maximal response (EC50) in assay [4] was below 10 µg/mL. Also, in assay [1], the LC50 is below 50 µg/mL.

For `CCc1nc2ncnn2c(NC(CC)c2ccc(OC(F)(F)C(F)C(F)(F)F)cc2)c1Cl` (stereo not shown) [C.I.53], the mortality at 2500 ppm in assay [3] was above 75%.
